These results are taken from US7462605B2, “Phosphoramidate compounds and methods of use” (Celmed Oncology (USA), Inc., priority 2002, dated 2008).

Like-named read-outs stand apart in the source and are kept apart here.

The subject of assay [1] is H630R10 (5FU Resistant) human colon carcinoma. Description: H630-10 5-FU resistant colon carcinoma xenografts in athymic mice. To be noted: 1.25, 2.5, 3.5 mg daily × 5 days, IP or IT/peritumoral; from Day 6 to Day 25.
Method: Tumor measurements began on the first day of treatment (Day 1).
Following cell expansion ex-vivo H630-10 were injected subcutaneously (S.Q.) at 1.5×10^7 cells/tumor in the mid-back region of 4-6 week old, female, CD-1 (nu/nu), athymic mice (Charles River Laboratories, Wilmington, Mass.). Tumor volumes, calculated as the product of length, width, and depth, were monitored twice weekly by serial micrometer measurements by a single observer. Six animals were randomly assigned to each treatment group and statistical tests were performed (single-factor ANOVA) to assure uniformity in starting tumor volumes between treatment and control groups at the beginning of the experiment. […] To assure accurate dosing, drug doses were individualized based upon animal weights determined immediately prior to each injection. […] Differences in day 25 xenograft volumes between groups were analyzed by single-factor ANOVA of the log transformed tumor volume data.
A further assay deals with SKLU1 (Lung) tumor cells. Description: alamarBlue growth inhibition, SKLU1. Format: cell-based, human. As to conditions: 120 hours. As to the method:
(§1) Growth Inhibition Studies. Cells growing exponentially were transferred to 384-well flat bottom tissue culture plates. All cell types were plated at a density of 500 cells per well in 25 μL of complete medium (RPMI 1640+10% fetal bovine serum+antibiotics/antimycotics). After 24 hours (day 0), 25 μL of complete medium containing the experimental compounds over the dose range of 10^ñ3 to 10^ñ10 M were added in triplicate. […] 5 μL of the redox indicator, alamarBlue, was added to each well (10% v/v). After 4 hours incubation at 37° C., fluorescence was monitored at 535 nm excitation and 595 nm emission.
(§2) Concentration vs. relative fluorescence units (RFU) were plotted, and sigmoid curves were fit using the Hill equation.
(In general: The colour change of resazurin is a common sign of viable cells or microbes.)

Another assay deals with C/HT1080 cells. Description: alamarBlue cytotoxicity, control-transfected HT1080. As to conditions: C/HT1080, TS Level 100%. Format: cell-based, human. How it is done:
(§3) Cell lines and transfection. HT1080 cells were grown in PRM11640 medium supplemented with 10% fetal calf serum, and transfected with GFP-TS expression vector. 48 hours after, transfection cells were tripsinized and replated in culture medium containing 750 μg/ml G418. After selection with G418 for two weeks, surviving cells were sorted based upon fluorescence expression. One clone with higher fluorescence expression (named as TSH/HT1080) and one clone with lower fluorescence expression (named as TSL/HT1080) were selected and expanded into cells lines. The stable HT1080 cells transfected with pEGFP-C3 were used as control.
(§4) Construction of GFP-TS expression vector. […] The cDNA was cloned into HindIII and KpnI sites of mammalian expression vector pEGFP-C3 (Clontech Laboratories. Inc., Palo Alto, Calif.), in-frame with GFP sequence. The cDNA insert was confirmed by DNA sequencing.
(§5) Growth Inhibition Studies. Cells growing exponentially were transferred to 384-well flat bottom tissue culture plates. All cell types were plated at a density of 500 cells per well in 25 μL of complete medium (RPMI 1640+10% fetal bovine serum+antibiotics/antimycotics). […] After 4 hours incubation at 37° C., fluorescence was monitored at 535 nm excitation and 595 nm emission.
as §2

For assay [2], the system named is collagen induced arthritis. Description: Collagen induced arthritis in DBA/1 mice. Format: in vivo, mouse. To be noted: vs saline-treated control; NB1011 2.5 mg per day intraperitoneal.
Method: Arthritis was induced in male DBA/1 mice (8-10 weeks old) by intradermal injection of bovine type II collagen, purified in-house at the Kennedy Institute of Rheumatology as previously described (Miller, E. J. et al. (1972)). Collagen was administered in complete Freund's adjuvant (Difco, Detroit, Mich.). Onset of arthritis is expected to be variable. Arthritis onset is considered to occur on the day that swelling and/or erythema were observed. Clinical score is a composite of disease severity and the number of limbs affected, and is monitored daily from onset of disease and used as an assessment of disease progress. An example for scoring is: 0, Normal; 1, slight swelling with erythema; 2, pronounced swelling; 3, joint rigidity. In addition, the extent of paw swelling reflects the degree of edema in affected limbs.
NB1011 was administered daily by intraperitoneal administration at 2.5 mg total dose per day.
Following immunization with collagen, mice were maintained until a significant clinical score for disease progression was achieved (between 2.5 and 3.5). Mice were then treated with control saline injections, NB1011, or with anti-TNF antibody as a positive control. […] Paw swelling is an alternative measure of CIA disease severity.
The subject of assay [3] is SKOV3 (Ovary) tumor cells. Description: alamarBlue growth inhibition, SKOV3. The format is cell-based, human. To be noted: 120 hours. As to the method:
as §1, §2

Assay [4] concerns NHOST (Bone) normal cells. Description: alamarBlue growth inhibition, NHOST. Format: cell-based, human. As to conditions: 120 hours. How it is done: as §1, §2
The test system of assay [5] is HT1080 (Colon) tumor cells. Description: alamarBlue growth inhibition, HT1080. As to conditions: 120 hours. Format: cell-based, human. As to the method: as §1, §2
In assay [6] the test system is MCIxc (Brain) tumor cells. Description: alamarBlue growth inhibition, MCIxc. Format: cell-based, human. To be noted: 120 hours. How it is done:
as §1, §2

In assay [7] the test system is NCI H520 (Lung) tumor cells. Description: alamarBlue growth inhibition, NCI H520. Format: cell-based, human. As to conditions: 120 hours. As to the method:
as §1, §2

A further assay deals with SOAS2 (Bone) tumor cells. Description: alamarBlue growth inhibition, SOAS2. The format is cell-based, human. To be noted: 120 hours. How it is done:
as §1, §2

The subject of assay [8] is MCF7 (Breast) tumor cells. Description: alamarBlue growth inhibition, MCF7. The format is cell-based, human. How it is done:
as §1, §2

For assay [9], the system named is H630 colon cancer cells, TDX selection. Description: alamarBlue cytotoxicity, H630 TDX-selected. Format: cell-based, human. As to conditions: Drug Selection TDX, read-out: NB1011-IC50. As to the method:
as §1, §2
(§6) Cells were grown and characterized as described above. TS expression level is relative to CCD18co, a normal colon epithelial cell line. Tritium release is background substracted as described in Methods. ND=Not detectable above background.

The subject of the next assay is A431 (Skin) tumor cells. Description: alamarBlue growth inhibition, A431. Format: cell-based, human. To be noted: 120 hours. As to the method:
as §1, §2

The test system of assay [10] is N1S1 cells, 5FU selection. Description: alamarBlue cytotoxicity, N1S1 5FU-selected. To be noted: N1S1, Drug Selection 5FU; read-out: NB1011-IC50. Format: cell-based. As to the method: as §1, §2, §6
The next assay has as its system TSH/HT1080 cells. Description: alamarBlue cytotoxicity, HT1080 expressing high GFP-TS. To be noted: second line printed TSL/HT1080, TS Level 702%. Format: cell-based, human. How it is done:
as §3, §4, §5, §2

Another assay has as its system HCTC (Colon) tumor cells. Description: alamarBlue growth inhibition, HCTC. Format: cell-based, human. To be noted: 120 hours. How it is done: as §1, §2
The test system of assay [11] is CCD18co normal colon epithelial cells. Description: Thymidine rescue, alamarBlue cytotoxicity. Format: cell-based, human. As to conditions: in the presence of 10 μM thymidine. The source says:
An additional approach was taken to understanding whether NB1011 might interfere with cell growth primarily by inactivating TS. This approach is based upon thymidine rescue of TS-blocked cells. […] For this reason, they survive only by scavenger mechanisms. One of the important scavenger mechanisms is utilization of extracellular thymidine. Thymidine incorporated by target cells can be converted to dTMP, usually by thymidine kinase, and thus continue DNA synthesis. Other pathways for use of exogenous thymidine have also been described If an important mechanism for NB1011 activity is via inhibition of endogenous TS, then the cytotoxicity should be relieved when thymidine is added to the cell culture media. For this experiment, a number of tumor cell lines were screened for their sensitivity to Tomudex and 5FdUrd, and ability to be rescued from these agents via thymidine supplementation. […] Experiments were carried out as described by (Patterson, et al. (1998)) with or without 10 μM thymidine, except that the alamarBlue assay was employed to determine cytotoxicity.

Usually IC50 stands for the midpoint of a concentration-inhibition curve.

As for “5-(2-Bromovinyl)-2′-deoxyuridine phenyl N-methoxy-L-alaninyl phosphoramidate [NB1011]”, in assay [1], the “tumor growth (xenograft volume)” value is “significant difference between the NB1011 groups vs. either the 5FU or excipient controls”. The IC50 with SKLU1 (Lung) tumor cells is 270 µM; with C/HT1080 cells it was 320 µM; in [3], 484 µM; in [4] it was 642 µM; in assay [5], 449 µM; in assay [6], 61 µM. The IC50 in assay [7] amounted to 135 µM; in the assay on SOAS2 (Bone) tumor cells, 232 µM; in assay [8] (MCF7, alamarBlue, read-out: IC50), 291 µM; in assay [8] (MCF7 Breast cancer, Drug Selection None, read-out: NB1011-IC50) it was 327 µM; in assay [8] (Tumor Cells: MCF7 (Breast), alamarBlue, 120 hours, read-out: IC50), 141 µM; in [9], 2.3 µM. Besides, the IC50 is 266 µM with A431 (Skin) tumor cells; 204 µM in assay [10]; 0.8 µM with TSH/HT1080 cells; 280 µM in the assay on HCTC (Colon) tumor cells; 223 µM in [11]. The “clinical score (disease suppression)” value in assay [2] is reported as “significant disease suppression”. For the same substance, in assay [2], the “paw swelling (disease suppression)” value is listed as “significant disease suppression”.
